Test results as given in paper PMC6337588, “Multi-Target Cinnamic Acids for Oxidative Stress and Inflammation: Design, Synthesis, Biological Evaluation and Modeling Studies” (Molecules, 2018).

Experiments:
[1] = Competition with DMSO for hydroxyl radicals (Fe3+/ascorbic acid system); format: biochemical; settings: hydroxyl radical scavenging
Protocol: Competition of the novel substituted acids with DMSO for hydroxyl radicals was measured. Hydroxyl radicals were generated using the Fe^3+/ascorbic acid system and expressed as a percentage inhibition of formaldehyde production in the presence of each compound at 100 μM (Table 2). All the synthesized derivatives strongly scavenge hydroxyl radicals at 100 μM in comparison to the reference compound Trolox.
The hydroxyl radicals generated by the Fe^3+/ascorbic acid system, were detected by the determination of formaldehyde produced from the oxidation of DMSO (Table 2). Trolox was used as reference compound [17, 18, 28].

[2] = Experimental lipophilicity as RM values by reversed phase TLC (RPTLC); format: physicochemical; settings: methanol/water 77/23 with 0.1% acetic acid, 24 °C, average of at least 5 measurements
Text: Lipophilicity is a physicochemical property correlated with the biological activity. Lipophilicity influences ligand-target binding interactions, solubility, absorption, distribution, bioavailability, metabolism and elimination (ADME) and toxicological outcomes. The lipophilicity of the novel cinnamic acids was experimentally measured as RM values using a reverse phase thin layer chromatography (RPTLC) method. This is acknowledged as a reliable, fast and convenient approach for expressing lipophilicity (Table 1). RM relates to the thermodynamic Rf value in a logarithmic form. Bate-Smith and Westall firstly determined lipophilicity as RM values in 1950 [31]. The Br-substituted derivatives 1i–7i are more lipophilic than the OH-substituted ones 1ii–7ii which can be easily explained by their structural characteristics.
Reversed phase TLC (RPTLC) was performed on silica gel plates impregnated with 55% (v/v) liquid paraffin in light petroleum ether. The mobile phase was a methanol/water mixture (77/23, v/v) containing 0.1% of acetic acid. The plates were developed in closed chromatography tanks saturated with the mobile phase at 24 °C. Spots were detected under UV light. RM values were determined from the corresponding Rf values (from five individual measurements) using the equation RM = log[(1/Rf) − 1] [17, 18, 28].

[3] = Reducing activity of the stable radical DPPH; format: biochemical
Protocol: The substituted acids were monitored for the antioxidant activity by the use of the stable 2,2-diphenyl-1-picrylhydrazyl radical (DPPH) at concentration 50 µM and 100 µM after 20 and 60 min (Table 1). In this assay the DPPH radical is reduced by single electron transfer from the antioxidant. Strong antioxidants are the phenoxide anions from phenolic compounds like catechol and derivatives, such as nordihydroguaretic acid (NDGA), the reference compound. The compounds presented medium reducing abilities from 29–61%, due to steric reasons; small differences were found among the compounds with time and concentration. 4-Br-substituted-3 phenyl acetic acid derivatives (Series I) are equipotent to 4-OH-substituted-3 phenyl acetic acid derivatives (Series II). No differences were observed between 4i and 5i and 4ii and 5ii.
To a solution of DPPH in absolute ethanol an equal volume of the compounds dissolved in DMSO was added. The final concentrations of the measured solutions of the novel acids were 50 and 100 µM starting from a stock solution (10 mM) in DMSO. The absorbance was recorded at 517 nm, after 20 and 60 min at room temperature (Table 1).

[4] = Non enzymatic assay of superoxide radical scavenging activity (PMS/NADH/NBT); format: biochemical
Protocol: Superoxide radical is a main cause of oxidative stress, expressing its biological toxicity by the inactivation of iron-sulfur cluster containing enzymes. The superoxide anion radical (O2^−^•) is less toxic than the hydroxyl radical, but still being one of the most known toxic reactive oxygen species (ROS). In this assay the superoxide anion radicals were generated by a non-enzymatically assay and the compounds are tested at 100 μM final concentration (Table 2). Caffeic acid (CA) has been used as a reference compound. Compound 4ii presented the highest activity, followed by compound 3ii. We succeeded to derive a quantitative-structure activity relationship model for this activity in which the topological polar surface (TPAS) of the compounds seem to govern the superoxide anion scavenging activity:% Superoxide Anion Scavenging Activity (100 µM) = 0.019 (±0.007) TPSA + 0.813 (±0.358) n = 6, r = 0.962, r^2 = 0.926, q^2 = 0.694, s = 0.122, Q = 7.885, F1,6 = 3.701, α = 0.1 clog P vs. TPSA 0.
The superoxide radicals are generated by mixing N-methylphenazonium methyl sulfate (PMS), NADH and air–oxygen and determined by the nitroblue tetrazolium method and measured at 560 nm (Table 2). Caffeic acid was used as reference compound [17, 18, 28].

soybean lipoxygenase = target: T1, soybean lipoxygenase (Glycine max, UniProt P08170); assay: Soybean lipoxygenase inhibition in vitro; format: biochemical; settings: for IC50: sodium linoleate 0.1 mM, 234 nm, read-out: LOX IC50
T1 construct: purchased Sigma Chemical, Co. (St. Louis)
T1 sequence (P08170 1-839): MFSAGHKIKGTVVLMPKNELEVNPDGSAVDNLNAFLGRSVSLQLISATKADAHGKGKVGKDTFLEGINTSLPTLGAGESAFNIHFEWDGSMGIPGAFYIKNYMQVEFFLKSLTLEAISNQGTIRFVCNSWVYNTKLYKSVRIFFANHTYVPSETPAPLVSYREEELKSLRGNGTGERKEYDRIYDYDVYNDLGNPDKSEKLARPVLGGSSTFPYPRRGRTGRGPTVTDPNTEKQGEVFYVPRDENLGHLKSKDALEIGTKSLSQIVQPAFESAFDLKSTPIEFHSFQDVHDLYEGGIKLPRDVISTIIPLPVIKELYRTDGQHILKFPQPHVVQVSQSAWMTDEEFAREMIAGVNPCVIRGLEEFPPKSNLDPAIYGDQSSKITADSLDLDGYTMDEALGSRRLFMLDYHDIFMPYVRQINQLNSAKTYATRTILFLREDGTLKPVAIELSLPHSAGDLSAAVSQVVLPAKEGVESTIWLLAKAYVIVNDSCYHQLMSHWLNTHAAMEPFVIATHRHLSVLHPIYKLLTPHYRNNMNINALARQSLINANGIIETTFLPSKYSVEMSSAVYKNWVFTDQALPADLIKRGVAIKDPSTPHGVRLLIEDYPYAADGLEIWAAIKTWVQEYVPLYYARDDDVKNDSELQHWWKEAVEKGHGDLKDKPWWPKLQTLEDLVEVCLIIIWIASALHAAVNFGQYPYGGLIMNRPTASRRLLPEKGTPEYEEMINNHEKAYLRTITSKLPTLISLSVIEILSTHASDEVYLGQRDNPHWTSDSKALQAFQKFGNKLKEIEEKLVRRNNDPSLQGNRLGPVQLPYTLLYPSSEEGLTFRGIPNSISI
Protocol: Many research groups have used readily obtainable soybean lipoxygenase, which is a homologue of mammalian lipoxygenase and well studied. Due to its availability and its well-characterised crystal structure, soybean LOX was selected to be used in this study.
In vitro study was evaluated as reported previously by our group. The tested compounds were incubated at room temperature with sodium linoleate (0.1 mM) and 0.2 mL of enzyme solution (1/9 × 104 w/v in saline). The method was based to the conversion of sodium linoleate to 13-hydroperoxylinoleic acid at 234 nm. […] In order to determine the IC50 values different concentrations were used.

[5] = ABTS+• decolorization assay; format: biochemical; settings: 1 min, 734 nm
Protocol: No role for lipophilicity was found. Oxidation of ABTS with potassium persulfate generates directly the ABTS radical cation (ABTS^+•) with no involvement of an intermediary radical, which is then reduced upon adding electron-donating antioxidants.
In order to produce the ABTS radical cation (ABTS^+•), ABTS stock solution in water (7 mM) was mixed with potassium persulfate (2.45 mM) and left in the dark at room temperature for 12–16 h before use. Our published experimental technique was used (Table 2). The results are recorded after 1 min of the mixing solutions at 734 nm. The results were compared to the appropriate standard inhibitor Trolox.

[6] = Inhibition of linoleic acid peroxidation (AAPH); format: biochemical; settings: anti-lipid peroxidation
Text: We also used water-soluble 2,2′-[…](2-amidinopropane) hydrochloride (AAPH) for the generation of free radicals. AAPH has been extensively used as a clean and controllable source of thermally produced alkylperoxyl free radicals. The peroxyl radicals produced by the action of AAPH show total similarity to cellular activities such as lipid peroxidation. […] It seems that the presence of 3,5-di-tert-butyl-group greatly enhances protection against lipid peroxidation (6i/ii and 7i/ii followed by 3ii and 5ii). The lipid peroxidation inhibitory activity seems to be concentration dependent.
2,2’-Azobis(2-amidinopropane) dihydrochloride (AAPH) was used as a free radical initiator to start the oxidation reaction. The method was based on the production of conjugated diene hydroperoxide by oxidation of linoleic acid at 234 nm expressed as an increased absorption. Trolox was used as reference compound (93%) (Table 2).

Compound | RM (±SD) [2] | IC50 (soybean lipoxygenase) [µM] | melting point [°C] | LOX % Inhibition 100 µM (soybean lipoxygenase; 100 µM) [%] | inhibition at 100 µM (soybean lipoxygenase; 100 µM, read-out: LOX % Inhibition 100 µM) [%] | HO•% 100 µM [1] [%] | RA% 50 µM 20 min [3] [%] | RA% 50 µM 60 min [3] [%] | RA% 100 µM 20 min [3] [%] | RA% 100 µM 60 min [3] [%] | O2−•% 100 µM [4] [%] | ABTS+•% 100 µM [5] [%] | AAPH% 50 µM [6] [%] | AAPH% 100 µM [6] [%]
CN(C)c1ccc(C=CC=C(C(=O)O)c2ccc(O)cc2)cc1 [Compound 3ii, 5-(4-(Dimethylamino)phenyl)-2-(4-hydroxyphenyl)penta-2,4-dienoic acid] | −0.642 (0.032) | 89 | 204 to 205 | – | – | 99 | 43 | 35 | 44 | 46 | 85 | 63 | 71 | 95
O=C(O)C(=CC(Br)=Cc1ccccc1)c1ccc(Br)cc1 [Compound 4i, 4-Bromo-2-(4-bromophenyl)-5-phenylpenta-2,4-dienoic acid] | 0.423 (0.017) | – | 211 to 212 | 28 | 27.9 | 83 | 30 | 30 | 38 | 36 | 46 | 24 | 52 | 85
O=C(O)C(=Cc1cccc(Oc2ccccc2)c1)c1ccc(Br)cc1 [Compound 1i, 2-(4-Bromophenyl)-3-(3-phenoxyphenyl)acrylic acid] | −0.103 (0.009) | 100 | 152 to 153 | – | – | 94 | 38 | 37 | 44 | 46 | 54 | 29 | 34 | 90

Continued by falling IC50 (soybean lipoxygenase), values first:

RM (±SD) [2] | IC50 (soybean lipoxygenase) [µM] | melting point [°C] | LOX % Inhibition 100 µM (soybean lipoxygenase; 100 µM) [%] | inhibition at 100 µM (soybean lipoxygenase; 100 µM, read-out: LOX % Inhibition 100 µM) [%] | Compound | HO•% 100 µM [1] [%] | RA% 50 µM 20 min [3] [%] | RA% 50 µM 60 min [3] [%] | RA% 100 µM 20 min [3] [%] | RA% 100 µM 60 min [3] [%] | O2−•% 100 µM [4] [%] | ABTS+•% 100 µM [5] [%] | AAPH% 50 µM [6] [%] | AAPH% 100 µM [6] [%]
−0.565 (0.003) | 81.5 | 90 to 91 | – | – | CC(=Cc1ccccc1)C=C(C(=O)O)c1ccc(O)cc1 [Compound 5ii, 2-(4-Hydroxyphenyl)-4-methyl-5-phenylpenta-2,4-dienoic acid] | 89 | 32 | 39 | 30 | 41 | 8 | 35 | 53 | 93
1.151 (0.021) | 72.5 | 137 to 138 | – | – | CC(C)(C)c1cc(C=C(C(=O)O)c2ccc(Br)cc2)cc(C(C)(C)C)c1O [Compound 7i, 2-(4-Bromophenyl)-3-(3,5-di-tert-butyl-4-hydroxyphenyl)acrylic acid] | 87 | 34 | 35 | 30 | 31 | 54 | 28 | 61 | 100
0.011 (0.001) | 69 | 155 to 157 | – | – | O=C(O)C(=CC(Br)=Cc1ccccc1)c1ccc(O)cc1 [Compound 4ii, 4-Bromo-2-(4-hydroxyphenyl)-5-phenylpenta-2,4-dienoic acid] | 96 | 34 | 46 | 35 | 37 | 100 | 24 | 59 | 97
0.654 (0.016) | 57.5 | 139 to 140 | – | – | CC(C)(C)c1cc(C=C(C(=O)O)c2ccc(O)cc2)cc(C(C)(C)C)c1O [Compound 7ii, 3-(3,5-di-tert-Butyl-4-hydroxyphenyl)-2-(4-hydroxyphenyl)acrylic acid] | 72 | 33 | 35 | 33 | 34 | 69 | 34 | 69 | 100
